# Key:
# A control cell lines = assay: MTT assay, A control cell lines (lung cancer cell); assay type: cell-based
# Source text: Please refer to Table 1 and FIGS. 4A-4C. According to a MTT assay (Table 1), various cell viabilities of the A control cell lines can be obtained and illustrated in FIG. 4A while the compounds No. 2˜30 are used to treat A control cell lines, wherein A control cell lines are lung cancer cell.
# A3 cell lines = assay: MTT assay, A3 cell lines (lung cancer stem cell); assay type: cell-based
# Source text: Please to FIG. 4B, various cell viabilities of the A3 cell lines can be obtained through the MTT assay and illustrated in FIG. 4B while the compounds No. 1˜30 are used to treat A3 cell lines, wherein A3 cell lines are lung cancer stem cell.
# CCRF-CEM = assay: NCI in vitro DTP human cell line screen, CCRF-CEM; assay type: cell-based; details: Leukemia, 1.00E−5 Molar
# Description: (§1) Then, a cell toxicity assay of the cancer lines made by National Cancer Institute will be discussed as follows. The cell toxicity assay is performed by choosing ten compounds (existing certification numbers) from the 59 compounds disclosed in the present invention first.
# HL-60(TB) = assay: NCI in vitro DTP human cell line screen, HL-60(TB); assay type: cell-based; details: Leukemia, 1.00E−5 Molar
# Description: as §1
# MOLT-4 = assay: NCI in vitro DTP human cell line screen, MOLT-4; assay type: cell-based; details: Leukemia, 1.00E−5 Molar
# Description: as §1
# RPMI-8226 = assay: NCI in vitro DTP human cell line screen, RPMI-8226; assay type: cell-based; details: Leukemia, 1.00E−5 Molar
# Description: as §1
# SR = assay: NCI in vitro DTP human cell line screen, SR; assay type: cell-based; details: Leukemia, 1.00E−5 Molar
# Description: as §1
# HOP-62 = assay: NCI in vitro DTP human cell line screen, HOP-62; assay type: cell-based; details: Non-Small Cell Lung Cancer, 1.00E−5 Molar
# Description: as §1
# NCI-H226 = assay: NCI in vitro DTP human cell line screen, NCI-H226; assay type: cell-based; details: Non-Small Cell Lung Cancer, 1.00E−5 Molar
# Description: as §1
# NCI-H23 = assay: NCI in vitro DTP human cell line screen, NCI-H23; assay type: cell-based; details: Non-Small Cell Lung Cancer, 1.00E−5 Molar
# Description: as §1
# NCI-H460 = assay: NCI in vitro DTP human cell line screen, NCI-H460; assay type: cell-based; details: Non-Small Cell Lung Cancer, 1.00E−5 Molar
# Description: as §1
# COLO 205 = assay: NCI in vitro DTP human cell line screen, COLO 205; assay type: cell-based; details: Colon Cancer, 1.00E−5 Molar
# Description: as §1
# HCC-2998 = assay: NCI in vitro DTP human cell line screen, HCC-2998; assay type: cell-based; details: Colon Cancer, 1.00E−5 Molar
# Description: as §1
# HCT-116 = assay: NCI in vitro DTP human cell line screen, HCT-116; assay type: cell-based; details: Colon Cancer, 1.00E−5 Molar
# Description: as §1
# HCT-15 = assay: NCI in vitro DTP human cell line screen, HCT-15; assay type: cell-based; details: Colon Cancer, 1.00E−5 Molar
# Description: as §1
# HT29 = assay: NCI in vitro DTP human cell line screen, HT29; assay type: cell-based; details: Colon Cancer, 1.00E−5 Molar
# Description: as §1
# KM12 = assay: NCI in vitro DTP human cell line screen, KM12; assay type: cell-based; details: Colon Cancer, 1.00E−5 Molar
# Description: as §1
# SW-620 = assay: NCI in vitro DTP human cell line screen, SW-620; assay type: cell-based; details: Colon Cancer, 1.00E−5 Molar
# Description: as §1
# SF-268 = assay: NCI in vitro DTP human cell line screen, SF-268; assay type: cell-based; details: CNS Cancer, 1.00E−5 Molar
# Description: as §1
# SNB-19 = assay: NCI in vitro DTP human cell line screen, SNB-19; assay type: cell-based; details: CNS Cancer, 1.00E−5 Molar
# Description: as §1
# SNB-75 = assay: NCI in vitro DTP human cell line screen, SNB-75; assay type: cell-based; details: CNS Cancer, 1.00E−5 Molar
# Description: as §1
# U251 = assay: NCI in vitro DTP human cell line screen, U251; assay type: cell-based; details: CNS Cancer, 1.00E−5 Molar
# Description: as §1
# MALME-3M = assay: NCI in vitro DTP human cell line screen, MALME-3M; assay type: cell-based; details: Melanoma, 1.00E−5 Molar
# Description: as §1
# M14 = assay: NCI in vitro DTP human cell line screen, M14; assay type: cell-based; details: Melanoma, 1.00E−5 Molar
# Description: as §1
# MDA-MB-435 = assay: NCI in vitro DTP human cell line screen, MDA-MB-435; assay type: cell-based; details: Melanoma, 1.00E−5 Molar
# Description: as §1
# SK-MEL-2 = assay: NCI in vitro DTP human cell line screen, SK-MEL-2; assay type: cell-based; details: Melanoma, 1.00E−5 Molar
# Description: as §1
# SK-MEL-28 = assay: NCI in vitro DTP human cell line screen, SK-MEL-28; assay type: cell-based; details: Melanoma, 1.00E−5 Molar
# Description: as §1
# SK-MEL-5 = assay: NCI in vitro DTP human cell line screen, SK-MEL-5; assay type: cell-based; details: Melanoma, 1.00E−5 Molar
# Description: as §1
# UACC-257 = assay: NCI in vitro DTP human cell line screen, UACC-257; assay type: cell-based; details: Melanoma, 1.00E−5 Molar
# Description: as §1
# UACC-62 = assay: NCI in vitro DTP human cell line screen, UACC-62; assay type: cell-based; details: Melanoma, 1.00E−5 Molar
# Description: as §1
# IGROV1 = assay: NCI in vitro DTP human cell line screen, IGROV1; assay type: cell-based; details: Ovarian Cancer, 1.00E−5 Molar
# Description: as §1
# OVCAR-3 = assay: NCI in vitro DTP human cell line screen, OVCAR-3; assay type: cell-based; details: Ovarian Cancer, 1.00E−5 Molar
# Description: as §1
# OVCAR-5 = assay: NCI in vitro DTP human cell line screen, OVCAR-5; assay type: cell-based; details: Ovarian Cancer, 1.00E−5 Molar
# Description: as §1
# OVCAR-8 = assay: NCI in vitro DTP human cell line screen, OVCAR-8; assay type: cell-based; details: Ovarian Cancer, 1.00E−5 Molar
# Description: as §1
# NCI/ADR-RES = assay: NCI in vitro DTP human cell line screen, NCI/ADR-RES; assay type: cell-based; details: Ovarian Cancer, 1.00E−5 Molar
# Description: as §1
# SK-OV-3 = assay: NCI in vitro DTP human cell line screen, SK-OV-3; assay type: cell-based; details: Ovarian Cancer, 1.00E−5 Molar
# Description: as §1
# 786-0 = assay: NCI in vitro DTP human cell line screen, 786-0; assay type: cell-based; details: Renal Cancer, 1.00E−5 Molar
# Description: as §1
# CAKI-1 = assay: NCI in vitro DTP human cell line screen, CAKI-1; assay type: cell-based; details: Renal Cancer, 1.00E−5 Molar
# Description: as §1
# RXF 393 = assay: NCI in vitro DTP human cell line screen, RXF 393; assay type: cell-based; details: Renal Cancer, 1.00E−5 Molar
# Description: as §1
# SN12C = assay: NCI in vitro DTP human cell line screen, SN12C; assay type: cell-based; details: Renal Cancer, 1.00E−5 Molar
# Description: as §1
# TK-10 = assay: NCI in vitro DTP human cell line screen, TK-10; assay type: cell-based; details: Renal Cancer, 1.00E−5 Molar
# Description: as §1
# PC-3 = assay: NCI in vitro DTP human cell line screen, PC-3; assay type: cell-based; details: Prostate Cancer, 1.00E−5 Molar
# Description: as §1
# DU145 = assay: NCI in vitro DTP human cell line screen, DU145; assay type: cell-based; details: Prostate Cancer, 1.00E−5 Molar
# Description: as §1
# MCF7 = assay: NCI in vitro DTP human cell line screen, MCF7; assay type: cell-based; details: Breast Cancer, 1.00E−5 Molar
# Description: as §1
# MDA-MB-231/ATCC = assay: NCI in vitro DTP human cell line screen, MDA-MB-231/ATCC; assay type: cell-based; details: Breast Cancer, 1.00E−5 Molar
# Description: as §1
# BT-549 = assay: NCI in vitro DTP human cell line screen, BT-549; assay type: cell-based; details: Breast Cancer, 1.00E−5 Molar
# Description: as §1
# T-47D = assay: NCI in vitro DTP human cell line screen, T-47D; assay type: cell-based; details: Breast Cancer, 1.00E−5 Molar
# Description: as §1
# 60 cancer lines = assay: NCI cell toxicity assay of 60 cancer lines, whole panel summary; assay type: cell-based, human; details: 1.00E−5 Molar
# Description: as §1
compound,measurement,setting,value
"CCCSc1ccc2c(=O)c3ccccc3sc2c1Cl [No. 3, 4-Chloro-3-(propylthio)-9H-thioxanthen-9-one]",cell viabilities of A control cell lines (MTT assay),A control cell lines,84.8 ± 2.95%
same,cell viabilities of A3 cell lines (MTT assay),A3 cell lines,103 ± 10.2%
same,Growth Percent,CCRF-CEM,85.29%
same,Growth Percent,HL-60(TB),118.59%
same,Growth Percent,MOLT-4,94.70%
same,Growth Percent,RPMI-8226,104.20%
same,Growth Percent,SR,75.26%
same,Growth Percent,HOP-62,105.09%
same,Growth Percent,NCI-H226,94.52%
same,Growth Percent,NCI-H23,91.47%
same,Growth Percent,NCI-H460,59.83%
same,Growth Percent,COLO 205,92.63%
same,Growth Percent,HCC-2998,100.70%
same,Growth Percent,HCT-116,61.89%
same,Growth Percent,HCT-15,98.58%
same,Growth Percent,HT29,103.50%
same,Growth Percent,KM12,86.73%
same,Growth Percent,SW-620,87.67%
same,Growth Percent,SF-268,80.00%
same,Growth Percent,SNB-19,94.29%
same,Growth Percent,SNB-75,100.85%
same,Growth Percent,U251,67.20%
same,Growth Percent,MALME-3M,92.96%
same,Growth Percent,M14,102.38%
same,Growth Percent,MDA-MB-435,80.72%
same,Growth Percent,SK-MEL-2,114.59%
same,Growth Percent,SK-MEL-28,104.13%
same,Growth Percent,SK-MEL-5,98.20%
same,Growth Percent,UACC-257,98.85%
same,Growth Percent,UACC-62,84.56%
same,Growth Percent,IGROV1,91.28%
same,Growth Percent,OVCAR-3,90.35%
same,Growth Percent,OVCAR-5,94.79%
same,Growth Percent,OVCAR-8,83.50%
same,Growth Percent,NCI/ADR-RES,93.97%
same,Growth Percent,SK-OV-3,104.52%
same,Growth Percent,786-0,101.51%
same,Growth Percent,CAKI-1,78.97%
same,Growth Percent,RXF 393,106.97%
same,Growth Percent,SN12C,85.72%
same,Growth Percent,TK-10,103.80%
same,Growth Percent,PC-3,94.80%
same,Growth Percent,DU145,91.93%
same,Growth Percent,MCF7,97.13%
same,Growth Percent,MDA-MB-231/ATCC,85.71%
same,Growth Percent,BT-549,93.64%
same,Growth Percent,T-47D,98.14%
same,"Growth Percent, Mean",60 cancer lines; mean over all cell lines,91.31%
same,cancer types with the better inhibition effect (in words),60 cancer lines; summary of Table 3,better inhibition effect on non-small cell lung cancer

# — patent publication US8410161B2, “Thioxanthone ring system derivatives” (National Defense Medical Center, priority 2010, dated 2013)
